In patent publication US20220340875A1, “METHODS OF CULTURING AND/OR EXPANDING STEM CELLS AND/OR LINEAGE COMMITTED PROGENITOR CELLS USING AMIDO COMPOUNDS” (IDEAYA BIOSCIENCES, INC., priority 2018, published 2022) one finds IC50 data, which are given here for eleven compounds.

The assay has as its target T1, hAhR (Homo sapiens, UniProt P35869).
T1 construct: Stably integrated DRE-luciferase cell lines were generated by transducing the both cell lines with Cignal XRE luciferase reporter (Qiagen) lentiviral particles; endogenous in cells
T1 sequence (P35869 11-848): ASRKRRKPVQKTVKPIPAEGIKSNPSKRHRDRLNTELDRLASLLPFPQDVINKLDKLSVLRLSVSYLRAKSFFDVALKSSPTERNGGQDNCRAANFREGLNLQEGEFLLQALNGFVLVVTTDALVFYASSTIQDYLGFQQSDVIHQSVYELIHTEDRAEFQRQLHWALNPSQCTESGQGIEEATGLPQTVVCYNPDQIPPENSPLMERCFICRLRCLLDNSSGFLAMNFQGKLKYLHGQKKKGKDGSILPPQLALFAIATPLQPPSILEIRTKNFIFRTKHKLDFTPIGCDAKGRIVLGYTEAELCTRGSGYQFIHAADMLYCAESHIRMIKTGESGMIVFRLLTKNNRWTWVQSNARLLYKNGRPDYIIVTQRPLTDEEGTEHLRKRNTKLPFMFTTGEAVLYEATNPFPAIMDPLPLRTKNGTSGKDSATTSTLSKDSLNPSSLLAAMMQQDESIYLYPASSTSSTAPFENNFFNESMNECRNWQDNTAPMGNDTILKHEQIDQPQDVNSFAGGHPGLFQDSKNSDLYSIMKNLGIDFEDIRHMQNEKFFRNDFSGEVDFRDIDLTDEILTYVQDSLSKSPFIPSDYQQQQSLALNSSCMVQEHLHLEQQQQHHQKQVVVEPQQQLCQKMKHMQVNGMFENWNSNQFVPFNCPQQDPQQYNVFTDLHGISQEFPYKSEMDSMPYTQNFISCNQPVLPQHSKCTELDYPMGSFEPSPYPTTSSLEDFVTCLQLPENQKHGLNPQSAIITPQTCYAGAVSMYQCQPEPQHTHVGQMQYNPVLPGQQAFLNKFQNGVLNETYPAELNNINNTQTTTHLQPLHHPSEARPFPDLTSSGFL
Put plainly: AhR DRE-luciferase reporter transcriptional assay, antagonist mode (TCDD-induced). As to conditions: HEPG2 DRE-Luc cells, 3 nM TCDD, 24 hour incubation, relative IC50. The format is cell-based. The method, boiled down: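 HepG2 cells carrying a stably integrated DRE-luciferase reporter, in OptiMEM with 0.5% FBS; semi-log compound doses added with 3 nM TCDD, 24 h incubation, firefly luciferase read-out. Percent maximal activity normalised between vehicle ± TCDD; relative IC50 taken as half-reduction between curve plateaus.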
Compound `Cc1cc(-c2ccc3cc(C4CC4)ccc3n2)ccc1N(C)C(=O)c1ccnn1C` [Example 069, N-(4-(6-cyclopropylquinolin-2-yl)-2-methylphenyl)-N,1-dimethyl-1H-pyrazole-5-carboxamide] showed an IC50 of 1000 to 10000 nM.
The result for `Cc1cc(-c2ncc3nc(C(F)(F)F)cc(C)c3n2)ccc1N(C)C(=O)c1ccnn1C` [Example 148, N,1-Dimethyl-N-(2-methyl-4-(8-methyl-6-(trifluoromethyl)pyrido[3,2-d]pyrimidin-2-yl)phenyl)-1H-pyrazole-5-carboxamide] reads < 200 nM; that for `Cc1cc(-c2ccc3cc(C(F)(F)F)ccc3n2)ccc1N(C)C(=O)c1ccn[nH]1` [Example 205, N-methyl-N-[2-methyl-4-[6-(trifluoromethyl)quinolin-2-yl]phenyl]-1H-pyrazole-5-carboxamide], 500 to 1000 nM.
Turning to `Cc1cc(-c2ncc3nc(C(F)(F)F)cc(C)c3n2)c(F)cc1N(C)C(=O)c1ccnn1C` [Example 181, N-(5-fluoro-2-methyl-4-(8-methyl-6-(trifluoromethyl)pyrido[3,2-d]pyrimidin-2-yl)phenyl)-N,1-dimethyl-1H-pyrazole-5-carboxamide], the IC50 is < 200 nM.
Regarding `Cc1cc(-c2ccc3cc(F)ccc3n2)ccc1NC(=O)c1cnoc1C` [Example 038, N-(4-(6-fluoroquinolin-2-yl)-2-methylphenyl)-5-methylisoxazole-4-carboxamide], the IC50 fell in the range of 500 to 1000 nM.
`Cc1cc(-c2ncc3cc(C(F)(F)F)ccc3n2)ccc1NC(=O)c1ccncc1C` [Example 121, 3-methyl-N-(2-methyl-4-(6-(trifluoromethyl)quinazolin-2-yl)phenyl)isonicotinamide]: the IC50 was < 200 nM.
The figure for `Cc1cc(-c2ccc3c(ccn3CC(F)(F)F)c2)ccc1NC(=O)c1ccnn1C` [Example 088, 1-methyl-N-(2-methyl-4-(1-(2,2,2-trifluoroethyl)-1H-indol-5-yl)phenyl)-1H-pyrazole-5-carboxamide] is 1000 to 10000 nM; for `Cc1cc(-c2ncc3cc(C(F)(F)F)ccc3n2)ccc1N(C)C(=O)c1ccnc(C(N)=O)c1` [Example 152, N4-methyl-N4-(2-methyl-4-(6-(trifluoromethyl)quinazolin-2-yl)phenyl)pyridine-2,4-dicarboxamide] it is < 200 nM; for `Cn1nccc1C(=O)Nc1ccc(-c2ccc3nc(C(F)(F)F)ccc3n2)cc1F` [Example 103, N-(2-fluoro-4-(6-(trifluoromethyl)-1,5-naphthyridin-2-yl)phenyl)-1-methyl-1H-pyrazole-5-carboxamide] it is < 200 nM.
The result for `Cc1cc(-c2ccc3cncc(C)c3n2)ccc1NC(=O)c1ccnn1C` [Example 059, 1-methyl-N-(2-methyl-4-(8-methyl-1,6-naphthyridin-2-yl)phenyl)-1H-pyrazole-5-carboxamide] reads 200 to 500 nM.
The result for `CNC(=O)c1cc(C(=O)N(C)c2ccc(-c3ncc4nc(C(F)(F)F)cc(C)c4n3)cc2C)ccn1` [Example 169, N2,N4-dimethyl-N4-(2-methyl-4-(8-methyl-6-(trifluoromethyl)pyrido-[3,2-d]pyrimidin-2-yl)phenyl)pyridine-2,4-dicarboxamide] reads < 200 nM.
